Assay results published in patent publication US4322496A, “Inhibition of lactate oxidase” (Eastman Kodak Company, priority 1980, dated 1982).
Like-named read-outs stand apart in the source and are kept apart here.

What was measured:
L-Lactate Oxidase = molecular target: T1, L-Lactate Oxidase (Enterococcus casseliflavus, UniProt C9AC47); test: biochemical; conditions: for inhibition of the enzymatic activity of lactate oxidase: measured at 30° C.; for inhibition at 10000 µM: acid 10mM, read-out: LO % Inhibition
T1 sequence (C9AC47 1-367): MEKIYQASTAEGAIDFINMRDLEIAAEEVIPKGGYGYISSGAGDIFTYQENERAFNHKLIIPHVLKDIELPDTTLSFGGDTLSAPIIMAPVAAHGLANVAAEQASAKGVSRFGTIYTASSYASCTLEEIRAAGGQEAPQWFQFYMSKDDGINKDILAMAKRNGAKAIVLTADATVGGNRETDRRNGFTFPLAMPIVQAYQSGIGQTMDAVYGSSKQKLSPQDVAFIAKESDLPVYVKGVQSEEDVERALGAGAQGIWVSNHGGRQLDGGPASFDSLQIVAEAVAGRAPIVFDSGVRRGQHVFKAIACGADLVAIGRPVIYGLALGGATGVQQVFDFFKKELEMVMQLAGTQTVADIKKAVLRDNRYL
Method: (§1) In the examples, oxidative enzymes were prepared from Streptococcus faecium ATCC 12755. L-lactate oxidase was isolated from Streptococcus faecium as a 0-50% ammonium sulfate fraction as described in Esders et al., U.S. Pat. No. 4,166,763 issued Sept. 4, 1979. L-α-glycerophosphate oxidase was purified from Streptococcus faecium as described in Table V, of Research Disclosure Publication No. 16146 published Sept. 10, 1977.
In the examples, enzyme assays for lactate oxidase were carried out as follows: Assay reaction mixtures contained in a total volume of 1.0 ml: 100 μmoles potassium phosphate buffer, pH 7.0, 25 μmoles lactic acid, […] horseradish peroxidase (4.6 purpurogallin units), and 0.25 μmoles orthodianisidine. Compounds to be tested as potential inhibitors for lactate oxidase were added to the assay reaction mixtures as indicated in Example 1. Samples were equilibrated at 30° C. and then reactions were initiated by addition of Streptococcus faecium lactate oxidase. Absorbance at 430 nm was measured in a Beckman 25 spectrophotometer. Initial rates were calculated from the linear portion of the curve.

[1] = molecular target: T2, L-α-Glycerophosphate Oxidase (Enterococcus casseliflavus, UniProt O86963); test: L-α-glycerophosphate oxidase enzyme assay (absorbance at 430 nm); format: biochemical; conditions: for inhibition at 5000 µM: compound at 5 mM, 37° C., pH 7.0, read-out: L-α-Glycerophosphate Oxidase Percent Inhibition
T2 construct: L-α-glycerophosphate oxidase was purified from Streptococcus faecium; made in house; host or cells: Streptococcus faecium ATCC 12755 (native organism, not recombinant)
T2 sequence (O86963 1-609): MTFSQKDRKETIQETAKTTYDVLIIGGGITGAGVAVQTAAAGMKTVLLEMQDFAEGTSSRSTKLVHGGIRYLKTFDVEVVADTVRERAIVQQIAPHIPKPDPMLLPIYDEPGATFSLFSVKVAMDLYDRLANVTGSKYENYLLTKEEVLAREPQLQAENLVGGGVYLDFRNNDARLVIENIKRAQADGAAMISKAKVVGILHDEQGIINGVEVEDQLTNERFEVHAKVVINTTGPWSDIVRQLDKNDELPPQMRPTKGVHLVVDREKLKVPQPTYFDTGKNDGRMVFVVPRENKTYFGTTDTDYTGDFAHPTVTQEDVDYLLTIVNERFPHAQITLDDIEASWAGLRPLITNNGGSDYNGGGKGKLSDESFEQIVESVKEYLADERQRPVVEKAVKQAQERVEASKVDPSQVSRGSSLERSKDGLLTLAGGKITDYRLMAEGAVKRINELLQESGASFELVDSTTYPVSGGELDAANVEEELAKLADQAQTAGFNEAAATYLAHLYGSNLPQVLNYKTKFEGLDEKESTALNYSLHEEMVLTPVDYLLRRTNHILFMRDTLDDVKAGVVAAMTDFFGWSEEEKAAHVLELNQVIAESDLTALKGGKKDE
Method: as §1, with “1977. Extensively purified L-α-glycerophosphate oxidase (material carried through the whole purification sequence) contained L-α-glycerophosphate:lactate oxidase activity ratios of (1700-3000:1), whereas the partially purified L-α-glycerophosphate oxidase (material isolated as the 50-80% ammonium sulfate fraction) contained L-α-glycerophosphate:lactate oxidase activity ratios of 30-100:1.” for “1977.”
In the examples, enzyme assays for L-α-glycerophosphate oxidase were carried out as follows: Assay reaction mixtures contained in a total volume of 1.0 ml: 100 μmoles potassium phosphate buffer, pH 7.0, 66 μg orthodianisidine, 25 μg horseradish peroxidase (4.6 purpuragallin units) and 200 μmoles DL-α-glycerophosphate (at pH 7.0). Compounds to be tested as potential inhibitors were added to the reaction mixtures as indicated in Example 1. Samples were equilibrated at 37° C. and the reactions were initiated by the addition of an aliquot of enzyme. Absorbance at 430 nm was measured in a Beckman 25 spectrophotometer. Initial rates were calculated from the linear portion of the curve.

[2] = system: components of the triglyceride detection system; test: Response of dry chemistry triglyceride test elements to test fluids; conditions: 81 or 405 mg/m^2 glycolate in element
Method: (§2) In the examples, non-fibrous, multilayer, "dry chemistry" analytical elements for determination of serum triglycerides were formulated having the following structure and composition: […]
The enzymatic reagent layer composition of the above-noted "dry chemistry" analytical element contained deionized gelatin (5.4 g/m^2); gel hardener (32.4 mg/m^2); poly(methyl acrylate-co-2-acrylamido-2-methylpropanesulfonic acid-co-2-acetoacetoxyethyl methacrylate) having a monomer weight ratio of (88.8:4.7:6.5) as peroxidase stabilizer (5.4 g/m^2); 0.05 M potassium phosphate buffer, pH 7.0; Triton X-100 surfactant (389 mg/m^2); 2-(3,5-dimethoxy-4-hydroxyphenyl)4,5-bis(4-dimethylaminophenyl)imidazole as a leuco dye (405 mg/m^2 dispersed in 2,4-di-n-amylphenol (4.05 g/m^2); antioxidant (324 mg/m^2); MgCl (103 mg/m^2); adenosinetriphosphate (1.35 g/m^2); peroxidase (7020 U/m^2); glycerol kinase (324 U/m^2); and either purified or partially purified L-α-glycerophosphate oxidase (2840 U/m^2). […]
Dry chemistry analytical elements (as described above) containing purified L-α-glycerophosphate oxidase and partially purified enzyme plus two different levels of glycolate were compared for response to serum triglycerides and glycerol. […] After a sevenminute incubation at 37° C., the reflection density, DR, at 540 nm was measured through the element support. […]

[3] = molecular target: T3, lactate oxidase activity in partially purified L-α-glycerophosphate oxidase (Enterococcus casseliflavus, UniProt C9AC47); test: Lactate blank reaction in dry chemistry triglyceride test element; format: biochemical; conditions: for Response to Lactate (DR): partially purified α-GPO, 10 μl DL-lactate 20 mg/dl, 540 nm, 7 min, 37° C.
T3 sequence (C9AC47 1-367): T1 sequence (C9AC47 1-367)
Method: as §2
The enzymatic reagent layer composition of the above-noted "dry chemistry" analytical element contained deionized gelatin (5.4 g/m^2); gel hardener (32.4 mg/m^2); poly(methyl acrylate-co-2-acrylamido-2-methylpropanesulfonic acid-co-2-acetoacetoxyethyl methacrylate) having a monomer weight ratio of (88.8:4.7:6.5) as peroxidase stabilizer (5.4 g/m^2); 0.05 M potassium phosphate buffer, pH 7.0; Triton X-100 surfactant (389 mg/m^2); 2-(3,5-dimethoxy-4-hydroxyphenyl)4,5-bis(4-dimethylaminophenyl)imidazole as a leuco dye (405 mg/m^2 dispersed in 2,4-di-n-amylphenol (4.05 g/m^2); antioxidant (324 mg/m^2); MgCl (103 mg/m^2); adenosinetriphosphate (1.35 g/m^2); peroxidase (7020 U/m^2); glycerol kinase (324 U/m^2); and either purified or partially purified L-α-glycerophosphate oxidase (2840 U/m^2). When the partially purified L-α-glycerophosphate oxidase was used, glycolate was incorporated into that layer in the amounts noted below in Example 2.
A. Dry Chemistry Test Element Mode: Dry chemistry analytical elements for the determination of triglycerides were prepared with either the purified or partially purified L-α-GPO as described above. To each element, a 10 μl sample of DL-lactate (20 mg/dl) was applied and the reflection density of the element, DR, at 540 nm was measured through the element support after a seven-minute incubation at 37° C.

[4] = molecular target: T4, lactate oxidase activity in partially purified DL-α-glycerophosphate oxidase (Enterococcus casseliflavus, UniProt C9AC47); test: Lactate/serum blank reaction, solution mode; format: biochemical; conditions: 10 min, 37° C.; for Response to Normal Serum ΔA490: 20 μl normal serum
T4 sequence (C9AC47 1-367): T1 sequence (C9AC47 1-367)
Method: Solution incubation mixtures contained in a total volume of 1.0 ml: 100 μmoles potassium phosphate buffer, pH 7.0, 0.12 mg 4-aminoantipyrene.HCl, 0.04 mg 1,7-dihydroxynaphthalene, 25 μg horseradish peroxidase (4.6 purpurogallin units), 0.36 units glycerol kinase, 4.6 units partially purified DL-α-glycerophosphate oxidase, and 10 mg Triton X-100. Reactions were initiated by addition of 20 μl of normal serum or 50 μl of 1 mM Dl-lactate, and after ten minutes at 37° C., the absorbance was measured at 490 nm. In each case, a reagent blank (all components except substrate) was subtracted to give the change in absorbance at 490 nm, ΔA490.

[5] = molecular target: T5, beef meat lactate dehydrogenase (Bos taurus, UniProt P19858); test: LDH assay reaction mixture (pyruvate/NADH); format: biochemical; conditions: acid 10 mM; pH 7.5
T5 construct: beef meat lactate dehydrogenase; from tissue; host or cells: beef meat (skeletal muscle)
Method: The effect of these acids on LO was evaluated by studying an LO assay reaction mixture having the composition described above. The effect of these acids on LDH was evaluated by studying an LDH assay reaction mixture which contained in a total volume of 1.0 ml: 50 μmoles potassium phosphate buffer (pH 7.5); 1 μmole sodium pyruvate; 0.13 μmole NADH; 0.02 μg beef meat lactate dehydrogenase (320 U/mg) and the acid at a concentration of 10 mM. In the absence of acid, the rate of reaction was assumed to be 100% and the percent inhibition of each reaction was calculated accordingly.

[6] = compound at 5 mM, 30° C., pH 7.0, rate without compound = 100%, read-out: L-Lactate Oxidase Percent Inhibition
[7] = pH 7, read-out: L-Lactate Oxidase Percent Inhibition

inhibition at 5000 µM (L-Lactate Oxidase; [6])	inhibition of the enzymatic activity of lactate oxidase (L-Lactate Oxidase)	inhibition of lactate oxidase activity (in words) (L-Lactate Oxidase)	SMILES	also measured
21%	< 50%		O=C(O)C(O)CO (racemic) [Glyceric Acid]	
0%		little or no inhibition	O=C(O)CC(O)C(=O)O (stereo not shown) [Malic Acid]	
10%			O=C(O)C(O)C(=O)O [Tartronic Acid]	
7%	< 50%		CCC(O)C(=O)O (stereo not drawn) [α-Hydroxybutyric Acid]	
0%		little or no inhibition	CC(O)CC(=O)O (stereo not drawn) [β-Hydroxybutyric Acid]	

Second part, the compound before the results:

SMILES	inhibition at 5000 µM (L-Lactate Oxidase; [6])	inhibition of the enzymatic activity of lactate oxidase (L-Lactate Oxidase)	inhibition of lactate oxidase activity (in words) (L-Lactate Oxidase)	also measured
NCC(=O)O [Glycine]			little or no inhibition	inhibition at 5000 µM (L-Lactate Oxidase; [7]): 0%
O=C(O)CO [Glycolic Acid]	90%		greatly inhibit	inhibition of L-α-GPO (in words) [1]: do not inhibit; inhibition at 5000 µM [1]: 0%; inhibition of the components of the triglyceride detection system (in words) [2]: did not inhibit any of the components of the triglyceride detection system; lactate blank relative to control (purified α-GPO) ([3]; 81 mg/m^2 glycolic acid): 1.6 times control; Response to Lactate (DR) ([3]; 81 mg/m^2 glycolic acid): 0.04; reaction with lactate compared with control (purified α-GPO) ([3]; 405 mg/m^2 glycolic acid): less than that observed with the purified L-α-glycerophosphate oxidase; Response to Lactate (DR) ([3]; 405 mg/m^2 glycolic acid): 0.01; inhibition at 10000 µM (L-Lactate Oxidase): 90%; Response to Normal Serum ΔA490 ([4]; glycolate 1 mM): 0.006; Response to 50 μM DL-Lactate ΔA490 ([4]; glycolate 1 mM): 0.008; Response to Normal Serum ΔA490 ([4]; glycolate 2 mM): 0; Response to 50 μM DL-Lactate ΔA490 ([4]; glycolate 2 mM): 0; Response to Normal Serum ΔA490 ([4]; glycolate 3 mM): 0; Response to 50 μM DL-Lactate ΔA490 ([4]; glycolate 3 mM): 0; inhibition at 10000 µM [5]: 11%
O=CC(=O)O [Glyoxalic Acid]	100%		inhibited the enzyme	inhibition of L-α-GPO (in words) [1]: inhibited L-α-GPO as well; inhibition at 5000 µM [1]: 100%; inhibition at 10000 µM (L-Lactate Oxidase): 100%; inhibition at 10000 µM [5]: 15%
CC(O)C(N)=O (stereo not shown) [Lactamide]	0%		little or no inhibition	
O=C(O)CC(=O)O [Malonic Acid]	30%	< 50%		
COCC(=O)O [Methoxyacetic Acid]			little or no inhibition	inhibition at 5000 µM (L-Lactate Oxidase; [7]): 0%
O=C(O)C(=O)O [Oxalic Acid]	94%		greatly inhibit	inhibition of L-α-GPO (in words) [1]: do not inhibit; inhibition at 5000 µM [1]: 0%; inhibition at 10000 µM (L-Lactate Oxidase): 94%; inhibition at 10000 µM [5]: 100%
NC(=O)C(=O)O [Oxamic Acid]	40%	< 50%		
NC(=O)C(N)=O [Oxamide]	43%	< 50%		
O=C(O)CCC(=O)C(=O)O [α-Ketoglutaric Acid]			little or no inhibition	inhibition at 5000 µM (L-Lactate Oxidase; [7]): 0%
